According to patent US8263738B2, “Estrogen receptors and methods of use” (Creighton University, priority 2004, dated 2012):

How the values were obtained:
[1] = system: ER-α36 transfected cells; settings: for block of E2β-stimulated cell growth by anti-estrogens: 10 nM anti-estrogen with E2β; for block of E2β-stimulated cell growth by anti-estrogens / growth of ER-α36 transfected cells, anti-estrogen alone: 48 hours; for growth of ER-α36 transfected cells, anti-estrogen alone: 10 nM
[2] = molecular target: T1, ER-α36 (Homo sapiens, UniProt P03372, I452L); assay: Western blot of MAPK pathway activation (ERK1/2, Mek1 phosphorylation) in ER-α36 transfected HEK293 cells; assay type: cell-based
T1 construct: expressed in transfected cells; transient transfectants for A11
T1 sequence (P03372 1-310 isoform P03372-4 I279L): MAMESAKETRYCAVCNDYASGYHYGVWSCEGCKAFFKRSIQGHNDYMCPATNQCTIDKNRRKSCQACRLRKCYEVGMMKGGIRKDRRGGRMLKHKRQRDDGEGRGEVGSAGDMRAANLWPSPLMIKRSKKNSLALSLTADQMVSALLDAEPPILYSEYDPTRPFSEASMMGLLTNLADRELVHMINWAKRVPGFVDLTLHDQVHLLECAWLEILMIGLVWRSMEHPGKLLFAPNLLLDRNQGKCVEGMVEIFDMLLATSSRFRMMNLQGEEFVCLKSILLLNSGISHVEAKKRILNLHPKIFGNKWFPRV
Experimental: (§1) Cell culture, establishment of stable cell lines and membrane-labeling with E2-BSA-FITC. MCF10A cells were obtained from Karmanos Cancer Institute at Detroit, Mich., and human embryonic kidney 293 cells, and all breast cancer cells were obtained from ATCC. All cells were maintained at 37° C. in a 5% CO2 atmosphere in appropriate tissue culture medium. […] The ER-α36 expression vector was constructed by cloning a 1.1-kb EcoRI-BamHI cDNA fragment of ER-α36 from pBS-ER-α36 into the EcoRI and BamHI sites of mammalian expression vector pCB6+. Empty vector was also transfected into cells to serve as controls. Forty-eight hours after transfection, the cells were replated and selected with 500 μg/ml of G418 (Invitrogen) for two weeks. The resulting uncloned population of G418-resistant cells was expanded to generate cells used for further analysis.
(§2) Western blot analysis, indirect immunofluorescence and antibodies. For Western blot analysis, cells were disrupted with RIPA buffer, boiled in gel loading buffer and separated on a 10% SDS-PAGE gel. After electrophoresis, the proteins were transferred to a PVDF membrane (Millipore). The filter was probed with various antibodies and visualized with appropriate HRP-conjugated secondary antibodies (Santa Cruz Biotechnology) and ECL reagents (Perkin Elmer Life Sciences).
(§3) Antibody against ERK1/2 (K-23) was purchased from Santa Cruz Biotechnology. Antibodies used to analyze activation of the MAP kinase pathway included the phosphorylated forms of Mek1 and ERK1/2, and were purchased from Cell Signaling Technology. Rat anti-ER-α antibody (H222) was purchased from Research Diagnostic Inc. Antibodies of COPB (Y-20), mSin3A (AK-11), and 5′ nucleotidase (H-300) were purchased from Santa Cruz biotechnology Inc. D4-GDI (clone 97A1015) was obtained from Upstate Biotechnology.

[3] = system: control 293 cells transfected with empty expression vector; assay: Western blot of ERK1/2 phosphorylation in control 293 cells transfected with empty vector; assay type: cell-based, human
Experimental: as §1, §2
Antibody against ERK1/2 (K-23) was purchased from Santa Cruz Biotechnology. […]

[4] = system: ER-α66 negative MDA-MB-231 cells; assay: Western blot of ERK1/2 phosphorylation in MDA-MB-231 cells; assay type: cell-based, human; settings: 1 nM E2β, serum starved cells, different time periods
Text: For Western blot analysis, cells were disrupted with RIPA buffer, boiled in gel loading buffer and separated on a 10% SDS-PAGE gel. After electrophoresis, the proteins were transferred to a PVDF membrane (Millipore). The filter was probed with antibody against ERK1/2 (K-23) (Santa Cruz Biotechnology), or antibody used against the phosphorylated form of ERK1/2 (Cell Signaling Technology).

[5] = system: control cells transfected with empty vector; assay: GAL-Elk / 5×Gal4-LUC luciferase reporter in control cells transfected with empty vector; settings: E2β
[6] = system: ER-α66 negative MDA-MB-231 cells; assay: Anchorage-independent growth in soft agar; assay type: cell-based, human; settings: three weeks
Text: The cells were then overlaid onto a 0.7% (wt/vol) agar containing phenol-red free DMEM/F12 medium plus 10% E2-free fetal calf serum in five replica 60 mm dishes. […] After three weeks, colonies were scored using an inverted microscope.

[7] = system: control cells transfected with empty expression vector; assay: MTT proliferation assay, control cells transfected with empty expression vector; assay type: cell-based, human; settings: E2β
[8] = molecular target: T2, ER-α36 (Homo sapiens, UniProt P03372); assay: Western blot of MAPK pathway activation (ERK1/2, Mek1 phosphorylation) in ER-α36 transfected HEK293 cells; assay type: cell-based; settings: treated for 10 minutes
T2 construct: expressed in transfected cells; transient transfectants for A11
T2 sequence (P03372 1-310 isoform P03372-4 I279L): T1 sequence (P03372 1-310 isoform P03372-4 I279L)
Experimental: as §1, §2, §3

[9] = system: neurons of ER-α gene knockout (aERKO) mice; settings: cited from earlier work
[10] = system: MDA-MB-231 cells; settings: high concentration of Tamoxifen; cited from earlier work

4OH-Tamoxifen
block of E2β-stimulated cell growth by anti-estrogens [1]: did not block | growth of ER-α36 transfected cells, anti-estrogen alone [1]: strongly stimulated growth | block of ERK1/2 activation mediated by ER-α36 by anti-estrogens [2]: did not block | effect on ERK1/2 activation compared to E2β alone [2]: even stronger

C[C@]12CC[C@@H]3c4ccc(O)cc4CC[C@H]3[C@@H]1CC[C@@H]2O [E2β, 17β-estradiol]
increase in the phosphorylation of ERK1/2 in control cells ([3]; E2β 10 nM, empty vector cells): not in the control cells | phosphorylation of ERK1/2 in MDA-MB-231 cells [4]: induced rapid phosphorylation | transcription activity of the Elk/Gal4 fusion protein in control cells [5]: had no effect | anchorage-independent growth in soft agar ([6]; 1 nM E2β): strongly promoted | growth of control cells [7]: had no effect

C[C@]12CC[C@@H]3c4ccc(O)cc4CC[C@H]3[C@@H]1[C@@H](O)[C@@H](O)[C@@H]2O [E4, estetrol]
activation of ERK1/2 phosphorylation by estrogens [8]: activated ERK1/2 phosphorylation at a very similar level

C[C@]12CC[C@@H]3c4ccc(O)cc4C[C@@H](CCCCCCCCC[S+]([O-])CCCC(F)(F)C(F)(F)F)[C@H]3[C@@H]1CC[C@@H]2O (some centres unmarked) [ICI-182, 780]
block of E2β-mediated rapid actions in neurons [9]: not blocked

CC/C(=C(\c1ccccc1)c1ccc(OCCN(C)C)cc1)c1ccccc1 [Tamoxifen]
ERK1/2 activation by Tamoxifen in control cells ([3]; same concentration (1 μM), empty vector 293 cells): had no effect | block of E2β-stimulated cell growth by anti-estrogens [1]: did not block | growth of ER-α36 transfected cells, anti-estrogen alone [1]: strongly stimulated growth | effect of Tamoxifen on E2β-promoted growth in soft agar ([6]; 1 nM E2β combined with 1 nM tamoxifen): inhibits the effect of E2β | apoptosis in MDA-MB-231 cells [10]: induce apoptosis

N#CC(=C(/N)Sc1ccccc1N)/C(C#N)=C(/N)Sc1ccccc1N [UO126]
inhibition of E2β-stimulated cell growth ([1]; 7.2 nM UO126, 48 hours): strongly inhibited
